Measured values as given in PubChem BioAssay AID1963957 (Xavier Lab, Infectious Disease and Microbiome Program, …, 2024).
The source made the active and inactive calls.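 Rule for the calls: active = significant rise in GFP-LC3 puncta area per cell versus the same autophagy-inducer co-treatment given without compound; inactive = the rest.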

Tested on: HeLa GFP-LC3 puncta imaging, 4 h
Assay: autophagy induction measured as tagged microtubule-associated protein 1 light chain 3 foci, microscopic imaging, green fluorescent protein-light chain 3 HeLa reporter, with rapamycin or Torin1 co-treatment (AID 1963957)
Settings: for puncta normalized to Torin1: at 20 µM, active compounds read high

Structure (SMILES)	puncta normalized to Torin1 (no co-treatment)	puncta normalized to Torin1 (with Rapamycin)	puncta normalized to Torin1 (with Torin1)	EC50 (no co-treatment) [µM]	EC50 (with Rapamycin) [µM]	EC50 (with Torin1) [µM]
CCC(C)(C)C(=O)C(=O)N1CCCC[C@H]1C(=O)N[C@H](CCc1ccc(OC)cc1)C(=O)N1CC[C@H](Nc2nc(NCCc3sc(N)nc3C)nc(N(C)Cc3nnc4n3CCC4)n2)C1	-0.05 (inactive)	0.32 (inactive)	0.72 (inactive)			
CCC(C)(C)C(=O)C(=O)N1CCCC[C@H]1C(=O)N[C@H](CCc1ccc(OC)cc1)C(=O)N1[C@@H]2CC[C@H]1CC(Nc1nc(NCCc3sc(N)nc3C)nc(NCCn3cnc4ccccc43)n1)C2 (stereo partly specified)	0.49	1.54	2.17			
CCC(C)(C)C(=O)C(=O)N1CCCC[C@H]1C(=O)N[C@H](CCc1ccc(OC)cc1)C(=O)N1[C@@H]2CC[C@H]1CC(Nc1nc(NCCc3sc(N)nc3C)nc(N(C)Cc3nnc4n3CCC4)n1)C2 (stereo partly specified)	0.13 (inactive)	0.68 (inactive)	0.98 (inactive)			
CCC(=O)N1CCN(c2ccc(-n3c(=O)ccc4cnc5ccc(-c6cnc7ccccc7c6)cc5c43)cc2C(F)(F)F)CC1			1			
CCC(C)(C)C(=O)C(=O)N1CCCC[C@H]1C(=O)N[C@H](CCc1ccc(OC)cc1)C(=O)N1[C@@H]2CC[C@H]1CC(Nc1nc(NCCc3sc(N)nc3C)nc(NCc3ccnc(CO)c3)n1)C2 (stereo partly specified)	0.14 (inactive)	1.02	1.59			
CS(C)=O	0 (inactive)					
CCC(C)(C)C(=O)C(=O)N1CCCC[C@H]1C(=O)N[C@H](CCc1ccc(OC)cc1)C(=O)N1[C@@H]2CC[C@H]1CC(Nc1nc(NCCc3sc(N)nc3C)nc(N3CCn4ncnc4C3)n1)C2 (stereo partly specified)				12	11.5	29.3
CO[C@H]1C[C@@H]2CC[C@@H](C)[C@@](O)(O2)C(=O)C(=O)N2CCCC[C@H]2C(=O)O[C@H]([C@H](C)C[C@@H]2CC[C@@H](O)[C@H](OC)C2)CC(=O)[C@H](C)/C=C(\C)[C@@H](O)[C@@H](OC)C(=O)[C@H](C)C[C@H](C)\C=C/C=C/C=C/1C		0.39				
CCC(C)(C)C(=O)C(=O)N1CCCC[C@H]1C(=O)N[C@H](CCc1ccc(OC)cc1)C(=O)N1CC(Nc2nc(NCCc3sc(N)nc3C)nc(NCCn3cnc4ccccc43)n2)C1	0.06 (inactive)	0.85	1.47 (inactive)			
